Reference: patent US9546139B2, “Pyridine carboxylic acid based compound used as a P2X1 and P2X3 receptor antagonist, a production method for the same and a composition comprising the same” (GWANGJU INSTITUTE OF SCIENCE AND TECHNOLOGY, priority 2010, dated 2017)
Read-outs that look alike come from different tables or passages of the source.

How the values were obtained:
mouse P2X1 receptor = biological target: T1, mouse P2X1 receptor (Mus musculus, UniProt P51576); assay: Two-electrode voltage clamp, ATP-induced ion current in Xenopus oocytes expressing mouse P2X1; type: cell-based; details: for inhibition at 0.1 µM / inhibition at 10 µM: read-out: % inhibition mP2X1; for antagonistic activity, mouse P2X1 versus human P2X3: comparison of the two receptors
T1 construct: EST clones containing full-length cDNAs of mouse P2X1 (clone ID: 4189541) and human P2X7 receptor (clone ID: 5286944); host or cells: Xenopus oocytes (cRNA injected)
T1 sequence (P51576 1-399): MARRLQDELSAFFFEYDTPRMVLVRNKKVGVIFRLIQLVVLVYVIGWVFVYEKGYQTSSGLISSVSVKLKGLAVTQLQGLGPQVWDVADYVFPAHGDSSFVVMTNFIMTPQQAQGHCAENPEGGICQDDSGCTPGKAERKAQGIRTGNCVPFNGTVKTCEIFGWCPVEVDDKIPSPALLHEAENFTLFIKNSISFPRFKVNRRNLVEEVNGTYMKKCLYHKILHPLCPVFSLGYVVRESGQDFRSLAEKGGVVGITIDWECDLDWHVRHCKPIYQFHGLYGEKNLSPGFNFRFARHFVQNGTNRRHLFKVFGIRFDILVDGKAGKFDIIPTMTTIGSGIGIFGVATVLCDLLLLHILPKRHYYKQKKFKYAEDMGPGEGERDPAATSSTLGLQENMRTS
Description: 1-1. Antagonistic Activity at Recombinant Mouse P2X1 and Human P2X3 Receptors
(§1) Xenopus oocytes were harvested and prepared with method as previously described in publications. Defolliculated oocytes were injected cytosolically with mouse P2X1 and human P2X3 receptor cRNA ([…], 1 μg/mL), respectively, incubated for 24 hrs at 18° C. in Barth's solution and kept for up to 12 days at 4° C. until used in electrophysiological experiments. ATP-activated membrane currents (Vh=−70 mV) were recorded from cRNA-injected oocytes using the twin-electrode voltage-clamp technique (Axoclamp 2B amplifier). Voltage recording (1-2 MΩ tip resistance) and current-recording microelectrodes (5 MΩ tip resistance) were filled with 3.0 M KCl. Oocytes were held in an electrophysiological chamber and superfused with Ringer's solution (5 mL/min, at 18° C.) containing (mM) NaCl, 110; KCl, 2.5; HEPES, 5; BaCl2, 1.8, adjusted to pH 7.5. ATP was superfused over the oocytes for 60-120s then washed out for a period of 20 min. For inhibition curves, data were normalized to the current evoked by ATP, at pH 7.5. Test substances were added for 20 min prior to ATP exposure; all peptides were tested for reversibility of their effects. The concentration required to inhibit the ATP response by 50% (IC50) was taken from Hill plots constructed using the formula: log(I/Imax−1), where I is the current evoked by ATP in the presence of an antagonist. Data are presented as mean±SEM (n=4) for the data from different batches of oocytes.

human P2X3 receptor = biological target: T2, human P2X3 receptor (Homo sapiens, UniProt P56373); assay: Two-electrode voltage clamp, ATP-induced ion current in Xenopus oocytes expressing human P2X3; type: cell-based; details: for inhibition at 0.1 µM: 100 nM compound; for inhibition at 0.1 µM / inhibition at 10 µM: read-out: % inhibition hP2X3
T2 construct: expressed in transfected cells; host or cells: Xenopus oocytes (cRNA injected); cDNA from the Max-Planck Institute laboratory (Dr. W. Stuhmer and Dr. F. Soto)
T2 sequence (P56373 1-397): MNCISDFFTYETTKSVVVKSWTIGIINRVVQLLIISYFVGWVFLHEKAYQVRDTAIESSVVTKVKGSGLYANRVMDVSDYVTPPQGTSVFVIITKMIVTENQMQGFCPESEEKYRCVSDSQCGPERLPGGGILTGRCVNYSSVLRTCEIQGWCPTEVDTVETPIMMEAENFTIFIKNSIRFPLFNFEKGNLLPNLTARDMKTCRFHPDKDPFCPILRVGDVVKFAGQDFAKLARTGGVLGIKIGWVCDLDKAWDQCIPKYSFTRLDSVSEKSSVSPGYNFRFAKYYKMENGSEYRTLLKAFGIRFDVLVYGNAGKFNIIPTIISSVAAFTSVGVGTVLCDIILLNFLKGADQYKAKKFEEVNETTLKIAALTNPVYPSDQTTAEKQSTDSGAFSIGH
Description: Antagonistic Activity at Recombinant Mouse P2X1 and Human P2X3 Receptors
as §1

[1] = Table 1, 100 nM compound, ion current induced by 2 μM ATP, mean ± SEM, n = 4
[2] = Table 1, ion current induced by 2 μM ATP, mean ± SEM, n = 4
[3] = Table 1, 10 μM compound, ion current induced by 2 μM ATP, mean ± SEM, n = 4

SMILES: Cc1nc(N=Nc2cc(S(=O)(=O)O)ccc2S(=O)(=O)O)c(CCC(=O)O)c(C(=O)O)c1O [Compound 25, 3-(2-Carboxyethyl)-2-((2,5-disulfophenyl)diazenyl)-5-hydroxy-6-methylisonicotinic acid]
- % inhibition mP2X1 (mouse P2X1 receptor; [1]): 60.2 ± 4.9%
- inhibition at 0.1 µM (mouse P2X1 receptor; [1]): 60%
- antagonistic activity, mouse P2X1 versus human P2X3 (mouse P2X1 receptor): more powerful antagonistic activity to mouse P2X1 than human P2X3 receptor
- inhibition at 0.1 µM (human P2X3 receptor; [2]): 45.7 ± 10.8%

SMILES: Cc1nc(N=Nc2ccc(S(=O)(=O)O)cc2)c(CCC(=O)O)c(C(=O)O)c1O [Compound 27, 3-(2-carboxyethyl)-5-hydroxy-6-methyl-2-((4-sulfophenyl)diazenyl)isonicotinic acid]
- inhibition at 0.1 µM (mouse P2X1 receptor; [1]): 57.6 ± 8.8%
- antagonistic activity, mouse P2X1 versus human P2X3 (mouse P2X1 receptor): more powerful antagonistic activity to mouse P2X1 than human P2X3 receptor
- inhibition at 0.1 µM (human P2X3 receptor; [2]): 37.6 ± 6.9%

SMILES: Cc1ncc(C=CC(=O)O)c(C(=O)O)c1O [Compound 18, 5-(2-Carboxyvinyl)-3-hydroxy-2-methylisonicotinic acid]
- % inhibition mP2X1 (mouse P2X1 receptor; [3]): inactive
- % inhibition hP2X3 (human P2X3 receptor; [3]): inactive

SMILES: Cc1nc(N=Nc2ccc(C(=O)O)cc2)c(CCC(=O)O)c(C(=O)O)c1O [Compound 29, 3-(2-carboxyethyl)-2-((4-carboxyphenyl)diazenyl)-5-hydroxy-6-methy lisonicotinic acid]
- inhibition at 0.1 µM (mouse P2X1 receptor; [1]): 51.7 ± 7.4%
- antagonistic activity, mouse P2X1 versus human P2X3 (mouse P2X1 receptor): more powerful antagonistic activity to mouse P2X1 than human P2X3 receptor
- inhibition at 0.1 µM (human P2X3 receptor; [2]): 25.7 ± 6.9%

SMILES: Cc1ncc(CN(CCC(=O)O)Cc2ccccc2)c(C(=O)O)c1O [Compound 23, 5-((Benzyl(2-carboxyethyl)amino)methyl)-3-hydroxy-2-methylisonicotinic acid]
- % inhibition mP2X1 (mouse P2X1 receptor; [3]): inactive
- % inhibition hP2X3 (human P2X3 receptor; [3]): inactive

SMILES: Cc1ncc(C=CC(=O)O)c(C=O)c1O [Compound 17, 3-(4-Formyl-5-hydroxy-6-methylpyridin-3-yl)acrylic acid]
- inhibition at 10 µM (mouse P2X1 receptor; [3]): 7.4 ± 1.9%
- inhibition at 10 µM (human P2X3 receptor; [3]): 9.3 ± 2.3%

SMILES: Cc1nc(N=Nc2cc(S(=O)(=O)O)ccc2S(=O)(=O)O)c(COP(=O)(O)O)c(C=O)c1O [Compound 3, pyridoxal-phosphate-6-azophenyl-2′,5′-disulfonic acid, reference compound]
- % inhibition mP2X1 (mouse P2X1 receptor): 62.4 ± 3.1%
- Hill coefficient (mouse P2X1 receptor): −1.09±0.13
- IC50 (mouse P2X1 receptor; read-out: IC50 value (FIG. 1B)): 0.0307 ± 0.00512 µM
- % inhibition hP2X3 (human P2X3 receptor): 48.3 ± 5.6%
- Hill coefficient (human P2X3 receptor): −1.11±0.27
- IC50 (human P2X3 receptor; read-out: IC50 value (FIG. 1C)): 0.0962 ± 0.021 µM

SMILES: Cc1ncc(CN(CCC(=O)O)Cc2ccccc2)c(C=O)c1O [Compound 22, 3-(Benzyl((4-formyl-5-hydroxy-6-methylpyridin-3-yl)methyl)amino)propanoic acid]
- % inhibition mP2X1 (mouse P2X1 receptor; [3]): inactive
- % inhibition hP2X3 (human P2X3 receptor; [3]): inactive

SMILES: Cc1ncc(CCC(=O)O)c(C=O)c1O [Compound 13, 3-(4-formyl-5-hydroxy-6-methylpyridin-3-yl) propanoic acid]
- inhibition at 10 µM (mouse P2X1 receptor; [3]): 19.5 ± 5.1%
- inhibition at 10 µM (human P2X3 receptor; [3]): 22.3 ± 8.1%

SMILES: Cc1nc(N=Nc2ccc(S(=O)(=O)O)cc2)c(CCC(=O)O)c(C=O)c1O [Compound 26, 3-(4-Formyl-5-hydroxy-6-methyl-2-((4-sulfophenyl)diazenyl)pyridin-3-yl)propanoic acid]
- inhibition at 0.1 µM (mouse P2X1 receptor; [1]): 41.8 ± 9.8%
- inhibition at 0.1 µM (human P2X3 receptor; [2]): 46.5 ± 11.2%

SMILES: Cc1ncc(CCC(=O)O)c(C(=O)O)c1O [Compound 14, 5-(2-Carboxyethyl)-3-hydroxy-2-methyl isonicotinic acid]
- inhibition at 10 µM (mouse P2X1 receptor; [3]): 14.8 ± 1.7%
- inhibition at 10 µM (human P2X3 receptor; [3]): 15.2 ± 7.7%

SMILES: O=C(O)c1cc(C(=O)O)c(C(=O)N(Cc2cccc(Oc3ccccc3)c2)[C@H]2CCCc3ccccc32)cc1C(=O)O [A-317491, reference compound]
- Hill coefficient (human P2X3 receptor; concentration-inhibitory curve, 2 μM ATP (FIG. 1C, FIG. 2B)): −0.68±0.18

SMILES: Cc1nc(/N=N/c2ccc(C(=O)O)cc2)c(COP(=O)(O)O)c(C=O)c1O [MRS2159, reference compound]
- Hill coefficient (mouse P2X1 receptor; concentration-inhibitory curve, 2 μM ATP (FIG. 1B, FIG. 2A)): −1.13±0.20
